The numbers were not newly measured in patent publication US7288142B2, “Black dyes composition for ink-jet inks” (Everlight USA, Inc., priority 2005, dated 2007), which cites them from elsewhere.

For series [1] the following is noted: as ink-jet black dye, prior art.
For series [2] the following is noted: as ink-jet black dye, prior art. This is another data set of the same source.

Take C.I. Direct Black 168: the light-fastness result in series [1] is “good”. The solubility result in series [2] is given as “low”.

Take `Nc1cc2c(O)c(N=Nc3ccc(N=Nc4ccc(S(=O)(=O)[O-])cc4)c4ccc(S(=O)(=O)[O-])cc34)c(S(=O)(=O)[O-])cc2cc1S(=O)(=O)[O-].[Na+].[Na+].[Na+].[Na+]` [C.I. Food Black 2]: in series [1], the light-fastness entry is “poor”.
